{"source": "patent US7417044B2", "about": "“Tadalafil having a large particle size and a process for preparation thereof” (Teva Pharmaceutical Industries Ltd., priority 2005, dated 2008)", "key": {"[1]": {"assay": "Particle size of tadalafil by Malvern laser diffraction (Mastersizer S)", "format": "physicochemical", "excerpt": "Measurement and characterization of particle size distributions is known in the art. It is possible to compare samples of particulate tadalafil on the basis of individual points on a cumulative particle size distribution curve. The measurements are represented as d(0.X)=Y (where X and Y are Arabic numerals), each “d” describing an individual point on a cumulative PSD curve. The number “X” represents the percentage (number, volume, or weight) of particles in the population having a nominal size up to and including “Y”. Thus, d(0.9)=250μ is characteristic of a PSD in which 90% (number, volume, or weight) of the particles in a population have a nominal size of about 250μ or less (at least some particles having a nominal dimension of 250μ) and so forth. When PSD is determined by the well-know laser-diffraction method described herein, the d(0.X) measurement depicts a volume average. The particle size of tadalafil described herein was measured by Malvern Laser Diffraction using a Mastersizer S instrument. The measuring instrument was equipped with a small cell dispersion unit MS1 with a digital dispersion unit controller. The measurement was performed by using range lens 300RF (working range 0.05-900 mcm), beam length: 2.40 mm, presentation 3$$D (Fraunhofer), number of sweeps 4000, and speed rate 2300±10 rpm. The dilution medium was 0.1% w/v Span 80 in a saturated solution of tadalafil in cyclohexane. The measurement began after 10 seconds of recirculation, after the powder was added directly into the measurement cell filled with the dilution medium. According to the accepted rules of Good Manufacturing Procedures, a sample of tadalafil was measured after a successful blank measurement (% obscuration NMT 0.1%) was performed."}, "[2]": {"conditions": "prior-art tadalafil of U.S. Pat. No. 6,821,975; cited from earlier work"}}, "note": "Several values for one entry are separate records, joined by “and”; a condition that tells them apart may be missing. Equal values may be shown once."}
{"molecule": "CN1CC(=O)N2[C@H](c3ccc4c(c3)OCO4)c3[nH]c4ccccc4c3C[C@@H]2C1=O", "note": "[tadalafil, (6R-trans)-6-(1,3-benzodioxol-5-yl)-2,3,6,7,12,12a-hexahydro-2-methyl-pyrazino[1′,2′:1,6]pyrido[3,4-b]indole-1,4-dione]", "values": [{"measurement": "particle size, d(0.9)", "setting": "[1]; Example 1, final dry material after industrial-scale crystallization from acetone/water with heating/cooling cycles", "result": "60-500 microns"}, {"measurement": "particle size, d(0.9)", "setting": "[1]; Example 2, final dry material after crystallization from acetone/water with heating/cooling cycles", "result": "> 60", "unit": "microns"}, {"measurement": "particle size, d(0.9)", "setting": "[1]; Example 3, after milling with micronizer, 50 mm, 4.0 bar feed air and 3.0 bar milling air", "result": "about 228.7 microns"}, {"measurement": "particle size, d(0.9)", "setting": "[1]; Example 4, after milling with micronizer, 50 mm, 2.0 bar feed air and 1.0 bar milling air", "result": "about 105.8 microns"}, {"measurement": "particle size, d(0.9)", "setting": "[1]; Example 5, after milling with Pin-Mill, 9.6 Kg/hr feed rate and 12,000 rpm milling speed", "result": "about 52.4 microns"}, {"measurement": "particle size, d(0.9)", "setting": "[1]; Example 6, after milling with Pin-Mill, 9.6 Kg/hr feed rate and 4500 rpm milling speed", "result": "about 202.7 microns"}, {"measurement": "particle size, d(0.9)", "setting": "[1]; starting sample before milling (Examples 3-6)", "result": "584 microns and 538.6 microns and 553.5 microns"}, {"measurement": "particle size of 90% of the particles", "setting": "[2]", "result": "less than 40 microns"}]}
